In article PMC1448180, “Small-molecule and mutational analysis of allosteric Eg5 inhibition by monastrol” (BMC Chemical Biology, 2006):
Positions count from the first letter of the chain named. Where two headings read alike, the source gives them in different places.

Columns and labels:
hEg5-367H = target: T1, hEg5-367H (Homo sapiens, UniProt P52732); test: ATP hydrolysis by recombinant human Eg5 motor domain (NADH-enzyme coupled assay); format: biochemical; details: for Activity as Eg5 inhibitor, in words: authors' assays
T1 construct: motor domain (amino acid residues 1–367) of human Eg5; His6 (C); made in house
T1 sequence (P52732 1-367): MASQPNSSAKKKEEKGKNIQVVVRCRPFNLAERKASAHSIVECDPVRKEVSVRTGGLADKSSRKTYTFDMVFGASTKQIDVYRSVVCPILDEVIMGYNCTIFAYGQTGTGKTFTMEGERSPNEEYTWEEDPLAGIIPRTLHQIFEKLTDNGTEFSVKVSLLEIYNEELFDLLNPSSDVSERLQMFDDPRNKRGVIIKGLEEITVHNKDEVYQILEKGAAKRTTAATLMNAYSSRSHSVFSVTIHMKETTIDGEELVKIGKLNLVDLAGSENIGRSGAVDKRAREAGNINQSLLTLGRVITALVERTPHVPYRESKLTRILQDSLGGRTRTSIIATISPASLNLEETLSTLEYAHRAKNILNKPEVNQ
Experimental: (§1) Figure 2 Structure-activity relationship of monastrol derivatives. (A) Scheme depicting the Biginelli condensation, a one-pot reaction for preparing monastrol derivatives. […] Each data point is the average of three independent experiments. […] Each cell-based assay was performed in duplicate.
We used a modified PCR mutagenesis protocol to introduce mutations into hEg5-367H, a plasmid encoding the C-terminally His6-tagged motor domain (amino acid residues 1–367) of human Eg5. The wild-type and mutant proteins were expressed and purified using Ni-NTA affinity chromatography and concentrated to between 3 and 10 mg/ml protein as described.
(§2) ATP hydrolysis by recombinantly expressed kinesin motor domains was measured using an NADH-enzyme coupled assay. ATP hydrolysis was measured in KC25 buffer supplemented with 5 μM taxol, 1 mM ATP-KOH (pH 7.0), the appropriate concentration of motor domain, and the appropriate concentrations of taxol-polymerized microtubules.

BS-C-1 cells = test: Monoaster formation in tissue culture cells (manual count of mitotic cells); format: cell-based, green monkey; details: Chlorocebus sabaeus, read-out: Cells: monoaster formation score (drug concentration with roughly equal monastral and bipolar spindles)
Experimental: as §1
Conditions for growing the following cell lines are as described: D. rerio AB9 (37), D. melanogaster KC167 [38], and BS-C-1 green monkey kidney cells. For immunofluorescence microscopy, cells were grown on 12 mm circular coverslips to 30 % confluence, treated medium supplemented with drug and 0.2% DMSO, or a DMSO alone, for 6 hours, fixed with formaldehyde, and stained for DNA and microtubules, as described. D. melanogaster KC167 cells were cultured in Schneider's Drosophila Medium (GIBCO) whereas D. rerio AB9 cells and BS-C-1 green monkey kidney cells were cultured at 37°C in Dulbecco's Minimal medium in the presence of 10 % heat inactivated fetal calf serum.

Eg5 = details: cited from earlier work
Klp61F-364H = target: T2, Klp61F-364H (Drosophila melanogaster, UniProt P46863); test: ATP hydrolysis by Klp-61F motor domain (NADH-enzyme coupled assay); format: biochemical, D. melanogaster
T2 construct: His6 (C); made in house; host or cells: vector pRSETa
T2 sequence (P46863 1-364): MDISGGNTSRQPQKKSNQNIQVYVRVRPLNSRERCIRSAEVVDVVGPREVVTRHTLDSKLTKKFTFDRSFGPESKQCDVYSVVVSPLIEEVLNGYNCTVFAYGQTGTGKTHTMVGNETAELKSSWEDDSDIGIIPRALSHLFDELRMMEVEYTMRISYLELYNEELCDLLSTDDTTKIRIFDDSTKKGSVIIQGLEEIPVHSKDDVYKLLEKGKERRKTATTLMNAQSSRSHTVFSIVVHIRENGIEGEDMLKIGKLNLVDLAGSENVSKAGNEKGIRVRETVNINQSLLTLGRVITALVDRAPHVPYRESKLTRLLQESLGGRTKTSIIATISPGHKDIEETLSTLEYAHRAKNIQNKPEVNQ
Experimental: Each data point is the average of three independent experiments.
as §2

hEg5-367H (L214T) = target: T3, hEg5-367H (L214T) (Homo sapiens, UniProt P52732, L214T); test: ATP hydrolysis by Eg5 motor domain mutant L214T; format: biochemical; details: data not shown
T3 construct: motor domain (amino acid residues 1–367) of human Eg5; His6 (C); made in house
T3 sequence (P52732 1-367 L214T): T1 sequence (P52732 1-367) with L214T
From the text: Figure 4 Mutagenesis of the monastrol binding site in human Eg5. (A) Design of mutations in the human Eg5 motor domain. Amino acid side chains that are not conserved between Eg5 and conventional kinesin were targeted, either introducing chimeric or rationally designed mutations (asterix for targeted point mutants) to test the contribution of residues to the drug-sensitivity of Eg5. (B) Steady-state enzymatic parameters for engineered human Eg5 motor domain mutants. Steady-state ATP hydrolysis by Eg5 was measured using an NADH-enzyme coupled assay varying the concentration of ATP, microtubules, or monastrol to obtain the microtubule concentration for half-maximal stimulation (K0.5MT), the maximal rate of microtubule-stimulated ATP hydrolysis (kcat), and the concentration of monastrol that inhibits basal ATP hydrolysis by 50 % (IC50), as described.
We used a modified PCR mutagenesis protocol to introduce mutations into hEg5-367H, a plasmid encoding the C-terminally His6-tagged motor domain (amino acid residues 1–367) of human Eg5. […]
as §2

[1] = 500 nM hEg5-367H, KC25 buffer, 1 mM ATP-KOH (pH 7.0), 1 μM taxol-stabilized microtubules, read-out: IC50 (μM), inhibition of ATP hydrolysis by Eg5 motor domain
[2] = BSC-1, BS-C-1 cells, 6 hours treatment, duplicate
[3] = 500 nM hEg5-367H, KC25 buffer, 1 mM ATP-KOH (pH 7.0), 1 μM taxol-stabilized microtubules

Structure (SMILES)	IC50 (hEg5-367H) [µM]	EC50 (BS-C-1 cells; BSC-1, 6 h) [µM]	IC50 (μM), inhibition of ATP hydrolysis by Eg5 motor domain (hEg5-367H; [3])	also measured
CCOC(=O)C1=C(C)N(C)C(=S)NC1c1cccc(O)c1 (centres unmarked) [Derivative 1, ethyl 6-methyl-4-(3-hydroxyphenyl)-2-thioxo-1-methyl-1,2,3,4-tetrahydropyrimidine-5-carboxylate]	3.3	< 50		
N[C@@H](CSC(c1ccccc1)(c1ccccc1)c1ccccc1)C(=O)O [S-trityl cysteine]				Potency relative to monastrol (Eg5): more potent than monastrol
CCOC(=O)C1=C(C)NC(=S)NC1c1ccccc1 (centres unmarked) [Derivative 4a, ethyl 6-methyl-4-phenyl-2-thioxo-1,2,3,4-tetrahydropyrimidine-5-carboxylate]				IC50 (hEg5-367H; [1]): > 200 µM; EC50 (BS-C-1 cells; [2]): > 200 µM
CC(=O)C1=C(C)NC(=S)NC1c1cccc(O)c1 (centres unmarked) [Derivative 5a, methyl 6-methyl-4-(3-hydroxyphenyl)-2-thioxo-1,2,3,4-tetrahydropyrimidine-5-ketone]	25	50 to 200		
CC1=C(C(=O)OCC(C)C)C(c2cccc(O)c2)NC(=S)N1 (centres unmarked) [Derivative 5b, isobutyl 6-methyl-4-(3-hydroxyphenyl)-2-thioxo-1,2,3,4-tetrahydropyrimidine-5-carboxylate]				IC50 (hEg5-367H; [1]): 3.8 µM; EC50 (BS-C-1 cells; [2]): < 50 µM
CCOC(=O)C1=C(C)NC(=S)NC1c1cccc(F)c1 (centres unmarked) [Derivative 4c, ethyl 6-methyl-4-(3-fluorophenyl)-2-thioxo-1,2,3,4-tetrahydropyrimidine-5-carboxylate]		> 200	Not Inhib.	
CCOC(=O)C1=C(C)NC(=S)NC1c1ccc(O)cc1 (centres unmarked) [Derivative 4b]		> 200	Not Inhib.	
CCOC(=O)C1=C(C)NC(=S)N[C@H]1c1cccc(O)c1 [(S)-monastrol, reference compound]	6.1 ± 0.7			IC50 (Klp61F-364H): 230 ± 4 µM
CC1=C(C(=O)OCc2ccccc2)C(c2cccc(O)c2)NC(=S)N1 (centres unmarked) [Derivative 5c, benzyl 6-methyl-4-(3-hydroxyphenyl)-2-thioxo-1,2,3,4-tetrahydropyrimidine-5-carboxylate]	21	50 to 200		
CCOC(=O)C1=C(C)NC(=S)NC1c1cccc(Br)c1 (centres unmarked) [Derivative 4e, ethyl 6-methyl-4-(3-bromophenyl)-2-thioxo-1,2,3,4-tetrahydropyrimidine-5-carboxylate]				Activity as Eg5 inhibitor, in words (hEg5-367H): completely inactive
CCOC(=O)C1=C(C)NC(=O)NC1c1cccc(O)c1 (centres unmarked) [Derivative 2, ethyl 6-methyl-4-(3-hydroxyphenyl)-2-oxo-1,2,3,4-tetrahydropyrimidine-5-carboxylate]			Not Inhib.	Activity as Eg5 inhibitor, in words (hEg5-367H): completely inactive; EC50 (BS-C-1 cells; [2]): > 200 µM; Drug sensitivity of L214T mutant, in words (hEg5-367H (L214T)): resistant
CCOC(=O)C1=C(C)NC(=S)NC1c1cccc(OC)c1 (centres unmarked) [Derivative 4d, ethyl 6-methyl-4-(3-methoxyphenyl)-2-thioxo-1,2,3,4-tetrahydropyrimidine-5-carboxylate]		> 200	Not Inhib.	
CCOC(=O)C1=C(C(C)C)NC(=S)NC1c1cccc(O)c1 (centres unmarked) [Derivative 6, ethyl 6-isopropyl-4-(3-hydroxyphenyl)-2-thioxo-1,2,3,4-tetrahydropyrimidine-5-carboxylate]		> 200	Not Inhib.	
